Experimental data: patent US10759779B2, “Crystalline form of orexin receptor antagonist, processes for preparation thereof and use thereof” (priority 2017, dated 2020)

What was measured:
Format in all cases: physicochemical
[1] = Flowability (bulk/tapped density, compressibility index); settings: for Compressibility index: c=(ρf−ρ0)/ρf*100%; for Flowability: class by compressibility index
Protocol: Compressibility, also known as compressibility index is usually used to evaluate the flowability of powder and granular intermediates during the formulation process. A certain amount of powder was added into a measuring cylinder and bulk volume was recorded. Then the measuring cylinder was tapped to make the powder in the tightest state and the tapped volume was recorded. The bulk density (ρ0), tapped density (ρf) were calculated, and compressibility index was calculated according to c=(ρf−ρ0)/ρf. Compressibility index or Carr Index is an important indicator for evaluating the flowability of powder.
Compressibility index test method is as follows: Compressibility index was calculated according to bulk density ρ0 and tapped density ρf of Form CS2 and the amorphous solid of the prior art with c=(ρf−ρ0)/ρf*100%.

[2] = Adhesiveness (material sticking to the punch); settings: 30 mg, φ8 mm round tooling, 10 KN, 30s
Protocol: 30 mg of Form CS2 was weighed and added into the dies of φ8 mm round tooling, tableted at 10 KN and held for 30s. The amount of material sticking to the punch was weighed. The compression was repeated twice and the cumulative amount, maximum amount and average amount of material sticking to the punch during the compression process were recorded.

[3] = Compressibility (tablet hardness, tensile strength)
Protocol: 80 mg of Form CS2 was weighted and added into the dies of φ6 mm round tooling, compressed at 10 KN. The round tablet was stored in a desiccator for 24 hours until complete elastic recovery. Hardness (H) was tested with a tablet hardness tester. Diameter (D) and thickness (L) were tested with caliper. Tensile strength of the powder was calculated with the following formula: T=2H/πDL. Under a certain force, the greater the tensile strength, the better the compressibility.

[4] = Grinding stability of Form CS2; settings: ground manually for 5 minutes in a mortar, XRPD
Protocol: Form CS2 was ground manually for 5 minutes in a mortar. The XRPD pattern of the solids before and after grinding are presented in FIG. 12 (top: XRPD pattern before grinding; bottom: XRPD pattern after grinding). […] Form CS2 has good grinding stability.

[5] = Hygroscopicity by dynamic vapor sorption (DVS)
Protocol: Thermo gravimetric analysis (TGA) data in the present disclosure were acquired by a TA Q500. The parameters of the TGA method of the present disclosure were as follows: • Heating rate: 10° C./min • Purge gas: nitrogen • Dynamic Vapor Sorption (DVS) is measured via a SMS (Surface Measurement Systems Ltd.) intrinsic DVS instrument. Typical Parameters for DVS test are as follows: • Temperature: 25° C. • Gas and flow rate: N2, 200 mL/min • dm/dt: 0.002%/min • RH range: 0% RH to 95% RH
Dynamic vapor sorption (DVS) was applied to measure hygroscopicity of Form CS2 with about 10 mg of samples. The weight gains at each relative humidity were recorded in a cycle of 0-95%-0 RH. The XRPD pattern overlay of Form CS2 before and after DVS test is presented in FIG. 14 (top: XRPD pattern before DVS; bottom: XRPD pattern after DVS). […] The weight gain under 80% RH is 0.21%.

[6] = 80 mg tablet, φ6 mm, 10 KN, after 24 hours

| Compound | Bulk density (ρ0) [1] | Tapped density (ρf) [1] | Compressibility index [1] | Flowability [1] | Average amount of material sticking to the punch [2] | Cumulative amount of material sticking to the punch [2] | Maximum amount of material sticking to the punch [2] | Diameter [3, 6] | Hardness [3, 6] | Thickness [3, 6] | Tensile strength ([3]; T=2H/πDL) | Crystalline form after grinding [4] | Weight gain under 80% Relative Humidity ([5]; DVS, 25° C.) | Crystalline form after DVS ([5]; cycle of 0-95%-0 RH, XRPD) |
| --- | --- | --- | --- | --- | --- | --- | --- | --- | --- | --- | --- | --- | --- | --- |
| Cc1ncc(OC[C@@]2(c3cccc(F)c3)C[C@H]2C(=O)Nc2ccc(F)cn2)c(C)n1 [Amorphous solid, (1R,2S)-2-{[(2,4-dimethylpyrimidin-5-yl)oxy]methyl}-2-(3-fluorophenyl)-N-(5-fluoropyridin-2-yl)cyclopropanecarboxamide, reference compound] | 0.196 g/mL | 0.274 g/mL | 28% | Poor | – | – | – | – | – | – | – | – | – | – |
| Cc1ncc(OC[C@@]2(c3cccc(F)c3)C[C@H]2C(=O)Nc2ccc(F)cn2)c(C)n1 [Form CS2, (1R,2S)-2-{[(2,4-dimethylpyrimidin-5-yl)oxy]methyl}-2-(3-fluorophenyl)-N-(5-fluoropyridin-2-yl)cyclopropanecarboxamide] | 0.263 g/mL | 0.351 g/mL | 25% | Passable (21-25) | 0.22 mg | 0.44 mg | 0.74 mg | 6.06 mm | 8.4 N | 2.40 mm | 0.37 MPa | does not change after grinding | 0.21% | does not change after DVS |
